According to patent US11479622B2, “Active energy ray curable composition, active energy ray curable ink, composition accommodating container, two or three dimensional image forming apparatus, two or three dimensional image forming method, cured matter, decorative matter, artificial nail composition, nail decorative material, and …” (priority 2019, dated 2022):
Read-outs that look alike come from different tables or passages of the source.

Experiments:
[1] = test system: female mice
Method: According to the skin sensitization test based on the Local Lymph Node Assay (LLNA), the SI value was measured in the following manner.
As positive control material, α-hexylcinnamaldehyde (HCA; product of Wako Pure Chemical Industries, Ltd.) was used.
As a medium, a liquid mixture containing acetone (product of Wako Pure Chemical Industries, Ltd.) and olive oil (product of Fudimi Pharmaceutical Co., Ltd.) in a volume ratio of 4 to 1 was used.
Before the test, female mice were acclimated about the test substances, the positive control, the medium control for 8 days including 6-day quarantine.
Based on the body weights measured two days before the initiation of sensitization, they were categorized into two groups (four mice/group) by the body weight stratified random sampling method so that the body weight of each individual was within ±20 percent of the average body weight of all the individuals. Each of the animals for the test was eight to nine weeks old at the time of the initiation of sensitization. The individuals remaining after the categorization were excluded from the test.
The test substance was weighed in a measuring flask, and the volume of the test substance was adjusted to 1 mL with the medium. The thus-prepared test substance preparation was placed in a light-shielded airtight container (made of glass).
Prepared liquids and media of each of the test substance and positive control substance were applied to both auricles of the animal in an amount of 25 μL of each. A micropipettor was used for application. This treatment was performed once a day for three consecutive days.
About 48 hours after the final sensitization, the BrdU preparation liquid (0.5 mL) was intraperitoneally administered once to each of the animals.
About 24 hours after the administration of BrdU, the tested animals were allowed to undergo euthanasia, and their auricular lymph nodes were sampled. The surrounding tissue of each auricular lymph node was removed, and the auricular lymph nodes from both the auricles were collectively weighed. Also, the average and standard error of the weights of the auricular lymph nodes were calculated for each group. After the measurement of the weights, the auricular lymph nodes of each individual were stored in a frozen state using a biomedical freezer set to −20 degrees C.
After returning the auricular lymph nodes to room temperature, the auricular lymph nodes were mashed with the gradual addition of physiological saline, and suspended therein. The thus-obtained suspension was filtrated and thereafter dispensed into the wells of a 96-well microplate, with 3 wells being used per individual. The thus-dispensed suspensions were measured for intake of BrdU by the ELISA method. The reagents used were those of a commercially available kit (Cell Proliferation ELISA, BrdU colorimetric, Cat. No. 1647229, product of Roche Diagnostics Inc.). A multiplate reader (FLUOSTAR OPTIMA, product of BMG LABTECH Inc.) was used to measure the absorbance of each well (OD: 370 nm to 492 nm, the intake of BrdU), and the average of the absorbance of the 3 wells for each individual was used as the measurement of BrdU for the individual.
As shown in the following formula, the measurement of BrdU intake for each individual was divided by the average of the measurements of BrdU intake in the vehicle control group to calculate the SI value for the individual. The SI value of each test group was the average of the SI values of the individuals. […] SI=(Average (average of 3 well) of BrdU measuring value of individual)/(Average (average of four animals) of BrdU measuring value of medium control group) Relation 1

[2] = assay type: cell-based; details: OECD test guideline TG471 (±S9mix)
[3] = Oral toxicity according to OECD Test Guideline TG423; assay type: in vivo
[4] = in vivo
[5] = LLNA, BrdU intake by ELISA, mice, test substance 50.0 w/v percent in acetone/olive oil 4:1, 25 μL per auricle once per day × 3 days

| Molecule | SI (stimulation index) [1, 5] | SI (stimulation index) ([1]; female, mouse, in vivo, 3 days) | further results |
| --- | --- | --- | --- |
| Isobornyl acrylate [Example A2-2, reference compound] | Isobornyl acrylate, SI = 8.30, manufactured by Osaka Organic Chemical Company |  |  |
| C=C(C)C(=O)OCCO [Example A2-1, 2-hydroxyethyl methacrylate, reference compound] | 2-hydroxyethyl methacrylate, SI = 1.26, Manufactured by Tokyo Chemical Industry Co. Ltd.. |  |  |
| C=CC(=O)N1CCC(C(=O)OCC)CC1 [Example A1-7, N-acryloyl-piperidine-4-ethyl carboxylate] |  | (See Synthesis Example 7) SI = 1.70 |  |
| C=CC(=O)N(C)[C@@H](C)C(=O)OC(C)C [Example A1-6, N-acryloyl-N-methyl alanine isopropyl ester] |  | (See Synthesis Example 6) SI = 1.21 |  |
| C=C(C)C(=O)OCC(CC)(COC(=O)C(=C)C)COC(=O)C(=C)C [Example B1-3, trimethylol propane trimethacrylate] | TMPT, SI = 1.03, manufactured by Shin Nakamura Chemical Co., Ltd. |  |  |
| C=C(C)C(=O)OCC(COC(=O)C(=C)C)OC(C)=O [Example B1-6, 2-acetyl-1,3-glycerol dimethacrylate] |  | (See Synthesis Example 8) SI = 1.40 |  |
| C=C(C)C(=O)OCCOCCOC(=O)C(=C)C [Example B1-1, diethylene glycol dimethacrylate] |  | 2G, SI = 1.05, manufactured by Shin-Nakamura Chemical Co.,Ltd. |  |
| C=CC(=O)N(C)[C@@H](C)C(=O)OC [Example A1-4, N-acryloyl-N-methyl alanine methyl ester] |  | (See Synthesis Example 4) SI = 1.12 |  |
| C=CC(=O)N(CC(=O)OC)C(C)C [Example A1-3, N-acryloyl-N-isopropyl glycine methyl ester] |  | (See Synthesis Example 3) SI = 1.05 |  |
| C=CC(=O)OCC(CC)(COC(=O)C=C)COC(=O)C=C [Example B2-1, reference compound] | M-3547, SI = 3.42, manufactured by TOAGOSEI CO., LTD. |  |  |
| C=CC(=O)N(C)CC(=O)OC [Example A1-1, N-acryloyl-N-methyl glycine methyl ester] | (See Synthesis Example 1) SI = 1.00 |  | SI value (skin sensitivity) ([1]; OECD Test Guideline TG442B): 1.00; AMES test [2]: negative; Oral toxicity, cases died [3]: 0 out of 6; LD50 ([3]; in vivo, 2000 mg/kg): ≥ 2000 mg/kg; PII (skin irritation) [4]: 0.5 |
